Laboratory results taken from US6306828A, “Enantiomerically-enhanced nutritional energy substrates” (Baxter International, Inc., priority 1995, dated 2001).

Legend:
[1] = test system: isolated rat hepatocytes; experiment: Bioavailability/metabolism in isolated rat hepatocytes (production of metabolic intermediates); format: cell-based, male Wistar rats; details: 20 mM; for Glucose production / Ketone Bodies production / Pyruvate-Lactate production: 37° C.
Experimental: (§1) Assay of Bioavailability and Gross Toxicity of Trilactyl Glycerate in Isolate Rat Hepatocytes
(§2) In the following experiment, male Wistar rats (200-250 g) fasted for 24 hours were used. Hepatocytes were isolated according to the method of Berry and Friend (1969) as modified by Groen et al. (1982).
(§3) The isolated hepatocytes were incubated as follows:
[…] […] The supernatant was neutralized with KOH (2 M) and Mops (0.3 M) for subsequent determination of metabolites. 0.5 ml aliquots of the cell suspension were centrifuged at 13,500 g for 15 seconds. The pellet was frozen in liquid nitrogen and stored at -80° C. to subsequently measure pyruvate kinase activity.

[2] = test system: isolated rat hepatocytes; experiment: Gross toxicity, as gauged by hepatocyte viability; format: cell-based, male Wistar rats; details: 20 mM
Experimental: as §1, §2, §3
Hepatocytes (final concentration=10 mg dry cell/ml) were incubated in closed vials at 37° C. in a shaking water bath (60 strokes/min) for 30 minutes in 2.5 ml Krebs-bicarbonate buffer (NaCl: 120 mmol/L, KCl: 4.8 mmol/L, KH2 PO4 : 1.2 mmol/L, MgSO4 : 1.2 mmol/L, NaCO3 H: 24 mmol/L, Ca^2+ :2.4 mmol/L, pH 7.4) containing Bovine Serum Albumin (BSA)-oleate (2%-2 mmol/L), trilactyl glycerate or glucose octanoate (20 mM) The gas atmosphere was O2 /CO2 (19:1). After 30 minutes, 0.35 ml samples of the cell suspension were taken and quenched with perchloric acid (HCIO4, final concentration 5% (w/v)), then centrifuged at 13,500 g for 5 minutes. The supernatant was neutralized with KOH (2 M) and Mops (0.3 M) for subsequent determination of metabolites. 0.5 ml aliquots of the cell suspension were centrifuged at 13,500 g for 15 seconds. The pellet was frozen in liquid nitrogen and stored at -80° C. to subsequently measure pyruvate kinase activity.

[3] = test system: macrophage cultures; details: high lactate concentration; Jensen et al. 1986; cited from earlier work
[4] = test system: cerebral metabolism / brain function during hypoglycemia; details: cited from earlier work
[5] = test system: skeletal muscle; details: Hermanson et al. 1972; cited from earlier work

CC(O)C(=O)OCC(COC(=O)C(C)O)OC(=O)C(C)O (single isomer, unassigned) [trilactyl glycerate]
Glucose production ([1]; 0 Mins.): 0.006
Ketone Bodies production ([1]; 0 Mins.): 0.010
Pyruvate-Lactate production ([1]; 0 Mins.): 0.012
bioavailability and metabolic conversion [1]: demonstrate the bioavailability of trilactyl glycerate and its interconversion to glucose
Glucose production ([1]; 15 Mins.): 0.027
Ketone Bodies production ([1]; 15 Mins.): 0.12
Pyruvate-Lactate production ([1]; 15 Mins.): 0.38
Glucose production ([1]; 30 Mins.): 0.062
Ketone Bodies production ([1]; 30 Mins.): 0.15
Pyruvate-Lactate production ([1]; 30 Mins.): 0.42
Glucose production ([1]; 45 Mins.): 0.178
Ketone Bodies production ([1]; 45 Mins.): 0.11
Pyruvate-Lactate production ([1]; 45 Mins.): 0.45
Glucose production ([1]; 60 Mins.): 0.189
Ketone Bodies production ([1]; 60 Mins.): 0.13
Pyruvate-Lactate production ([1]; 60 Mins.): 0.43
gross toxicity, as gauged by hepatocyte viability [2]: No evidence of gross toxicity

CCCCCCCC(=O)OC1O[C@H](CO)[C@@H](O)[C@H](O)[C@H]1O (stereo partly drawn) [glucose octanoate, α,β-D-Glucopyranosyl octanoate]
bioavailability and metabolic conversion [1]: demonstrate the bioavailability of the substrate and its utility as a keptone precursor

CC(O)C(=O)O (stereo not shown) [lactate]
secretion of angiogenesis factors [3]: encouraged macrophage cultures to secrete angiogenesis factors
support of cerebral glucose metabolism and cognitive functions during hypoglycemia ([4]; Amiel 1994): able to support cerebral glucose metabolism and maintain cognitive functions during hypoglycemia
protection of brain function during hypoglycemia ([4]; Maran et al. 1994): protective of brain function during hypoglycemia
metabolism of blood lactate by skeletal muscle [5]: metabolized by skeletal muscle in significant quantities
